Assay results: publication PMC6573034 (Nature Communications, 2019)
“Also recorded” adds a separate entry of the source. Like-named read-outs stand apart in the source and are kept apart here.

Key:
SfMCT [1] = biological target: T1, SfMCT (Syntrophobacter fumaroxidans, UniProt A0LNN5); type: cell-based; conditions: for Relative uptake of [14C]L-lactate (in %): WT SfMCT, competitor 1 mM final concentration, normalized to control without competitor; for reduction of [14C]L-lactate uptake / competition with [14C]L-lactate uptake (in words): competitor 1 mM
T1 construct: expressed in transfected cells; host or cells: E. coli JA202 (MC4100 glcA::cat lldP::kan), plasmid pEXT20-SfMCT-3C-10His
T1 sequence (A0LNN5 1-412): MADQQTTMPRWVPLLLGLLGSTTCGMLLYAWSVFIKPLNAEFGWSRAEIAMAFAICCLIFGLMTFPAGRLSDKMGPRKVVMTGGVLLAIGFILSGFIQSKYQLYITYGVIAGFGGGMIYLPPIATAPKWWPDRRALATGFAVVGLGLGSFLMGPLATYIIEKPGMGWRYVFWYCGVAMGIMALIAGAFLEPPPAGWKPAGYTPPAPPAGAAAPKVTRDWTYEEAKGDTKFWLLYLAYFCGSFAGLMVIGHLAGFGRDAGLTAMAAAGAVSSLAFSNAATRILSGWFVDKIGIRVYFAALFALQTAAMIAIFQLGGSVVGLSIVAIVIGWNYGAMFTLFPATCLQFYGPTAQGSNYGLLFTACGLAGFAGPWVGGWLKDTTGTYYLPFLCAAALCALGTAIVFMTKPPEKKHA
Experimental: (§1) The cultures were grown at 37 °C and 180 r.p.m. in an incubator shaker (Multitron, Infors HT). Protein expression was induced at OD600 ~0.5 by addition of IPTG to a final concentration of 0.25 mM. After 4 h, bacteria were pelleted (5,200 × g, 10 min, room temperature) and resuspended in uptake buffer (20 mM Bis-Tris propane-HCl (pH 6.7), 250 mM KCl) to a bacteria density of OD600 12. […] Furthermore, [3-3 H] propionic acid sodium salt ([^3H]propionate, American Radiolabeled Chemicals, specific activity 30 Ci/mmol), n-[2,3-3 H] butyric acid sodium salt ([^3H]butyrate, American Radiolabeled Chemicals, specific activity 120 Ci/mmol), and [1–14 C] pyruvic acid sodium salt ([^14C]pyruvate, specific activity 0.055 Ci/mmol American Radiolabeled Chemicals) were also used for transport experiments. […] Uptake experiments were performed in 2 ml reaction tubes (Eppendorf) at 30 °C under agitation (1,000 r.p.m., Thermomixer compact, Eppendorf). […] Bacteria were immediately pelleted by centrifugation (21,000 × g, 4 min, room temperature) and washed two times with 900 μl stop buffer. Finally, bacteria were lyzed in 50 μl 5% (w/v) sodium dodecylsulfate and transferred into a white 96-well plate (Optiplate, PerkinElmer). 150 µl of scintillation cocktail (MicroScint 40, PerkinElmer) were added before measuring each reaction for 2 min with a scintillation counter (TopCount NXT, PerkinElmer). For data analysis, the signal of the empty vector was subtracted from the transporter signal. […] Cpm values of each experiment were normalized with respect to the determined upper plateau value, i.e., the fitted upper plateau value corresponds to 100%. The arithmetic average of three independent experiments was calculated. Three independent and normalized pH-dependence curves were then averaged. For data analysis Prism6 (GraphPad Software) was used. […] Equal amounts of bacteria expressing SfMCT variants were loaded on 14% SDS/polyacrylamide gels. His-tagged transporters were detected using an anti-His5 (Qiagen, catalogue number 34660, primary antibody) at a dilution of 1:3,000 and a goat anti-mouse IgG (H + L) HRP conjugate antibody (Biorad, catalogue number 172-1011, secondary antibody) at a dilution of 1:2,500.

SfMCT-F335A = biological target: T2, SfMCT-F335A (Syntrophobacter fumaroxidans, UniProt A0LNN5, F335A); assay: [14C]L-lactate transport competition assay, SfMCT-F335A; type: cell-based; conditions: competition by 1 mM ACAC
T2 construct: expressed in transfected cells; host or cells: E. coli JA202, pEXT20-SfMCT-3C-10His mutant plasmid
Experimental: The cultures were grown at 37 °C and 180 r.p.m. in an incubator shaker (Multitron, Infors HT). Protein expression was induced at OD600 ~0.5 by addition of IPTG to a final concentration of 0.25 mM. After 4 h, bacteria were pelleted (5,200 × g, 10 min, room temperature) and resuspended in uptake buffer (20 mM Bis-Tris propane-HCl (pH 6.7), 250 mM KCl) to a bacteria density of OD600 12. […] Furthermore, [3-3 H] propionic acid sodium salt ([^3H]propionate, American Radiolabeled Chemicals, specific activity 30 Ci/mmol), n-[2,3-3 H] butyric acid sodium salt ([^3H]butyrate, American Radiolabeled Chemicals, specific activity 120 Ci/mmol), and [1–14 C] pyruvic acid sodium salt ([^14C]pyruvate, specific activity 0.055 Ci/mmol American Radiolabeled Chemicals) were also used for transport experiments. […] Cpm values of each experiment were normalized with respect to the determined upper plateau value, i.e., the fitted upper plateau value corresponds to 100%. The arithmetic average of three independent experiments was calculated. […] His-tagged transporters were detected using an anti-His5 (Qiagen, catalogue number 34660, primary antibody) at a dilution of 1:3,000 and a goat anti-mouse IgG (H + L) HRP conjugate antibody (Biorad, catalogue number 172-1011, secondary antibody) at a dilution of 1:2,500.

MCT1 = biological target: MCT1; design: method as in Ovens et al., 2010, Biochem. J. 425:523-30; conditions: reported value, ref Ovens et al., 2010, Biochem. J. 425:523-30; cited from earlier work
SfMCT [2] = biological target: T1, SfMCT; assay: Uptake of [14C]L-lactate and other radiolabeled monocarboxylates into SfMCT expressing E. coli JA202; type: cell-based; conditions: for Uptake of radioligand by SfMCT (cpm): 0.1 µCi radiolabeled monocarboxylate, SfMCT-overexpressing bacteria; for transport by SfMCT (in words): uptake experiment using radiolabeled compound
Experimental: as §1

[3] = tested on: vector-transformed E. coli JA202; assay: Uptake of radioligands into vector-transformed bacteria; type: cell-based; conditions: 0.1 µCi radiolabeled monocarboxylate; vector-transformed bacteria
Experimental: The cultures were grown at 37 °C and 180 r.p.m. in an incubator shaker (Multitron, Infors HT). Protein expression was induced at OD600 ~0.5 by addition of IPTG to a final concentration of 0.25 mM. After 4 h, bacteria were pelleted (5,200 × g, 10 min, room temperature) and resuspended in uptake buffer (20 mM Bis-Tris propane-HCl (pH 6.7), 250 mM KCl) to a bacteria density of OD600 12. […] Furthermore, [3-3 H] propionic acid sodium salt ([^3H]propionate, American Radiolabeled Chemicals, specific activity 30 Ci/mmol), n-[2,3-3 H] butyric acid sodium salt ([^3H]butyrate, American Radiolabeled Chemicals, specific activity 120 Ci/mmol), and [1–14 C] pyruvic acid sodium salt ([^14C]pyruvate, specific activity 0.055 Ci/mmol American Radiolabeled Chemicals) were also used for transport experiments. […] Uptake experiments were performed in 2 ml reaction tubes (Eppendorf) at 30 °C under agitation (1,000 r.p.m., Thermomixer compact, Eppendorf). […] Bacteria were immediately pelleted by centrifugation (21,000 × g, 4 min, room temperature) and washed two times with 900 μl stop buffer. Finally, bacteria were lyzed in 50 μl 5% (w/v) sodium dodecylsulfate and transferred into a white 96-well plate (Optiplate, PerkinElmer). 150 µl of scintillation cocktail (MicroScint 40, PerkinElmer) were added before measuring each reaction for 2 min with a scintillation counter (TopCount NXT, PerkinElmer). For data analysis, the signal of the empty vector was subtracted from the transporter signal. […] Cpm values of each experiment were normalized with respect to the determined upper plateau value, i.e., the fitted upper plateau value corresponds to 100%. The arithmetic average of three independent experiments was calculated. Three independent and normalized pH-dependence curves were then averaged. For data analysis Prism6 (GraphPad Software) was used. The expression of SfMCT variants in E. coli JA202 (MC4100 glcA::cat lldP::kan)[15] was verified by Western blotting. Equal amounts of bacteria expressing SfMCT variants were loaded on 14% SDS/polyacrylamide gels. His-tagged transporters were detected using an anti-His5 (Qiagen, catalogue number 34660, primary antibody) at a dilution of 1:3,000 and a goat anti-mouse IgG (H + L) HRP conjugate antibody (Biorad, catalogue number 172-1011, secondary antibody) at a dilution of 1:2,500.

[4] = substrate: C[C@H](O)C(=O)O; assay: cells, lysate or membranes; type: cell-based, Syntrophobacter fumaroxidans; conditions: other: SfMCT-mediated [14C]L-lactate uptake; average of three independent saturation experiments

T2 sequence (A0LNN5 whole entry F335A): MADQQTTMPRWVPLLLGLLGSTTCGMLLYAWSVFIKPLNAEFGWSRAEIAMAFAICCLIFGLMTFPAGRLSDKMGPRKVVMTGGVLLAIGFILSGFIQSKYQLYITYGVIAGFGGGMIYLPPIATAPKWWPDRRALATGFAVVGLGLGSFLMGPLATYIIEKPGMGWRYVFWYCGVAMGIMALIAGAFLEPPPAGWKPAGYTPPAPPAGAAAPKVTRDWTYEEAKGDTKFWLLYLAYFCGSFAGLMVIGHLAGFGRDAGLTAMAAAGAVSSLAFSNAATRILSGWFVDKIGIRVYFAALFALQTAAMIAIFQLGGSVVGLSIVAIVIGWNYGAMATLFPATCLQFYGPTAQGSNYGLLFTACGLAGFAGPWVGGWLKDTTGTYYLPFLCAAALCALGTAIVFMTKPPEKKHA

C[C@@H](O)CC(=O)O [3-HBA, (R)-3-hydroxybutyrate]
Relative uptake of [14C]L-lactate (in %) (SfMCT [1]): 93.0096%
reduction of [14C]L-lactate uptake (SfMCT [1]): 5–14%

CC(=O)CC(=O)O [ACAC, acetoacetate]
Relative uptake of [14C]L-lactate (in %) (SfMCT-F335A): 43.19%
Relative uptake of [14C]L-lactate (in %) (SfMCT-F335A; listed as acetoacetate): 43%
Relative uptake of [14C]L-lactate (in %) (SfMCT [1]): 86.3974%
Relative uptake of [14C]L-lactate (in %) (SfMCT [1]; listed as acetoacetate): 86%
reduction of [14C]L-lactate uptake (SfMCT [1]): 5–14%

Cc1n[nH]c(C)c1Cc1sc2c(c1C(=O)N1C[C@H](O)CO1)c(=O)n(C)c(=O)n2CC(C)C [AR-C155858, reference compound]
[14C]L-lactate uptake (SfMCT [1]; 100 µM AR-C155858, control: 100%): 103%
Ki (MCT1): ~2 nM

N#CC(C#N)=NNc1cccc(Cl)c1 [CCCP, carbonyl cyanide 3-chlorophenylhydrazone, reference compound]
effect on uptake of [14C]L-lactate (in words) (SfMCT [1]; 20 µM CCCP): completely abolished

C[C@@H](N)C(=O)O [D-alanine]
competition with [14C]L-lactate uptake (in words) (SfMCT [1]): absence of any competition

C[C@H](N)C(=O)O [L-alanine]
competition with [14C]L-lactate uptake (in words) (SfMCT [1]): absence of any competition

CC(=O)O [acetate]
Relative uptake of [14C]L-lactate (in %) (SfMCT [1]): 90.2435%

CCCC(=O)O [butyrate]
Uptake of radioligand by SfMCT (cpm) (SfMCT [2]): 160.333 cpm
transport by SfMCT (in words) (SfMCT [2]): not transported; also recorded: without being transported
competition with [14C]L-lactate uptake (in words) (SfMCT [1]): significantly reduced
Uptake of radioligand by vector (cpm) [3]: 197.333 cpm

O=C(O)CC(O)(CC(=O)O)C(=O)O [citrate]
reduction of [14C]L-lactate uptake (SfMCT [1]): 5–14%

O=CO [formate]
Relative uptake of [14C]L-lactate (in %) (SfMCT [1]): 96.2179%

O=C(O)/C=C/C(=O)O [fumarate]
Relative uptake of [14C]L-lactate (in %) (SfMCT [1]): 61.3393%

O=C(O)CC(=O)O [malonate]
Relative uptake of [14C]L-lactate (in %) (SfMCT [1]): 91.3566%
reduction of [14C]L-lactate uptake (SfMCT [1]): 5–14%

O=C(O)C(=O)O [oxalate]
Relative uptake of [14C]L-lactate (in %) (SfMCT [1]): 95.2988%
reduction of [14C]L-lactate uptake (SfMCT [1]): 5–14%

CCC(=O)O [propionate]
Uptake of radioligand by SfMCT (cpm) (SfMCT [2]): 90.6667 cpm
transport by SfMCT (in words) (SfMCT [2]): not transported; also recorded: without being transported
Relative uptake of [14C]L-lactate (in %) (SfMCT [1]): 58.2752%
competition with [14C]L-lactate uptake (in words) (SfMCT [1]): significantly reduced
Uptake of radioligand by vector (cpm) [3]: 198.333 cpm

CC(=O)C(=O)O [pyruvate]
Uptake of radioligand by SfMCT (cpm) (SfMCT [2]): 2342.67 cpm
transport by SfMCT (in words) (SfMCT [2]): not transported; also recorded: does not transport
Uptake of radioligand by vector (cpm) [3]: 2551.22 cpm

O=C(O)CCC(=O)O [succinate]
Relative uptake of [14C]L-lactate (in %) (SfMCT [1]): 57.9601%

CC(C)[C@@H]1NC(=O)[C@H](C)OC(=O)[C@@H](C(C)C)NC(=O)[C@@H](C(C)C)OC(=O)[C@H](C(C)C)NC(=O)[C@H](C)OC(=O)[C@@H](C(C)C)NC(=O)[C@@H](C(C)C)OC(=O)[C@H](C(C)C)NC(=O)[C@H](C)OC(=O)[C@@H](C(C)C)NC(=O)[C@@H](C(C)C)OC1=O [valinomycin, reference compound]
effect on transport of [14C]L-lactate (in words) (SfMCT [1]; 20 µM valinomycin): no effect

B1: SfMCT (Syntrophobacter fumaroxidans MPOB) (protein)
chain: T1 sequence (A0LNN5 1-412)
notes: expressed in transfected cells; host or cells: E. coli JA202 (MC4100 glcA::cat lldP::kan), plasmid pEXT20-SfMCT-3C-10His
Km [4]: 233 ± 22 µM
